From patent publication EP4722219A1 (Gan & Lee Pharmaceuticals Co., Ltd., priority 2023, dated 2024)

Key:
Type in all cases: cell-based
SMARCA4 [1] = target: T1, SMARCA4 (Homo sapiens, UniProt P51532); assay: SMARCA4 degradation in HeLa cells (Western blot); design: endogenous in cells; details: 4 hours; for Dmax at 0.001 µM / Dmax at 0.08 µM: read-out: Degradation rate of SMARCA4 in HeLa cells (%)
Procedure: HeLa cells were seeded at 1.2 x 10^5 cells/well in a 6-well plate. 2 mL of EMEM medium supplemented with 10% FBS was added to each well and the culture dish was incubated overnight to allow the cells to adhere. […] The cells were returned to the incubator and incubated for another 4 hours.
(§1) After 4 hours, cells were harvested, the culture medium was aspirated, and the cells were rinsed once with 1 mL/well PBS. The PBS was aspirated, and 40 µL/well of RIPA lysis buffer containing protease inhibitors was added. After lysis and centrifugation, total protein extracts were obtained, and protein concentration in the extracts was determined by BCA assay. Protein electrophoresis was performed by SDS-PAGE, followed by constant voltage electrophoresis at 100 V for 60 minutes and the protein was then transferred to a PVDF membrane. The PVDF membrane was blocked in 5% skim milk powder for 1 hour at room temperature. […] After washing the membrane, secondary antibodies were added and incubated at room temperature for 1 hour (protected from the light). After washing, the membrane was exposed using an Odyssey luminometer. Grayscale analysis of bands was performed using Image Studio software.
(§2) The degradation rate (%) of SMARCA2/4 by the PROTAC compounds of the present invention in HeLa cells and SW1573 cells is shown in Table 10. Table 10 Degradation rate of SMARCA2/4 by PROTAC compounds of the present invention in HeLa cells and SW1573 cells (%)

SMARCA2 [2] = target: T2, SMARCA2 (Homo sapiens, UniProt P51531); assay: SMARCA2 degradation in HeLa cells (Western blot); design: endogenous in cells; details: 4 hours
T2 sequence (P51531 whole entry): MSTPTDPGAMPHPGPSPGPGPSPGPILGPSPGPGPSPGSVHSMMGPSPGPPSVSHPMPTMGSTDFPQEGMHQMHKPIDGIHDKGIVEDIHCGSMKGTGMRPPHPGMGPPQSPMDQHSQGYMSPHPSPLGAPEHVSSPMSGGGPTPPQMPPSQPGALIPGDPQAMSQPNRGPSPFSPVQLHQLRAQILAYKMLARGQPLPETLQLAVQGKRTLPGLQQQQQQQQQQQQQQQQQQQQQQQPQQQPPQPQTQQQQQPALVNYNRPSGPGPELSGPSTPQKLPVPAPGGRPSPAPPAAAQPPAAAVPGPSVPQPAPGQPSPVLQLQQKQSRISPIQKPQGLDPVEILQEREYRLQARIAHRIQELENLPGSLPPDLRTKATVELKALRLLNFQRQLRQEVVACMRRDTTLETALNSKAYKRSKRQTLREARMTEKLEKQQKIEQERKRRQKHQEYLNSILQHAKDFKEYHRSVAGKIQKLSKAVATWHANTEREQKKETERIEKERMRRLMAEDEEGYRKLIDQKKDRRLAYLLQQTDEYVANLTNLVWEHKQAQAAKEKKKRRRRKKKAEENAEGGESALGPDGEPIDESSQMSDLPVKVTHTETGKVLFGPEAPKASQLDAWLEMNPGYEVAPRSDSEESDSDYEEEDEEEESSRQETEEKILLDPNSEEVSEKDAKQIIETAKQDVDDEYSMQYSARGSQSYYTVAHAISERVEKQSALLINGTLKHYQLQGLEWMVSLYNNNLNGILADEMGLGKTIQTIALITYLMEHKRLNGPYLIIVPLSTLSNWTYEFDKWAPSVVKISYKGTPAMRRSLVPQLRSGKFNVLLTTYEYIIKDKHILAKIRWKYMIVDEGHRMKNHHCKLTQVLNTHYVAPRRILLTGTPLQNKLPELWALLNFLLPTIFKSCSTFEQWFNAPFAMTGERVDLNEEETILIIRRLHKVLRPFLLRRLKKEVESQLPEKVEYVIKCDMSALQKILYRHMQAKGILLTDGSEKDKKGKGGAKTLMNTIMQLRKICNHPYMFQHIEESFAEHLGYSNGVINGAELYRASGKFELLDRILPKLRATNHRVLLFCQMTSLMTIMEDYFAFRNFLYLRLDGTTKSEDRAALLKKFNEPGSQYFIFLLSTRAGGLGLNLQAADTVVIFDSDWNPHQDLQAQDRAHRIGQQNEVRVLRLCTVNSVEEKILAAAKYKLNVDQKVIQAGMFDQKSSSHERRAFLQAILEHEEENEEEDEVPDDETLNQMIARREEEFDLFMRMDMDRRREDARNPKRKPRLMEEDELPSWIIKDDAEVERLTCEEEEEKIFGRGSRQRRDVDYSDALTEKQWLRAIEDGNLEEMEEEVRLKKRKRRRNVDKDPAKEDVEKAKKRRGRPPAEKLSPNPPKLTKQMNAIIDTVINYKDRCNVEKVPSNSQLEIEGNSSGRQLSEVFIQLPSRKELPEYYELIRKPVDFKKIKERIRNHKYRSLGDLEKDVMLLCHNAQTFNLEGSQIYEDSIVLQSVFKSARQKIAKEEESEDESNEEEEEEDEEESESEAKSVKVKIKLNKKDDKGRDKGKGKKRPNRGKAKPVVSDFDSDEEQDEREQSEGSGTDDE
Procedure: (§3) Test Example 10 Degradation rate (%) of SMARCA2/4 by the PROTAC compounds of the present invention in HeLa cells and SW1573 cells
(§4) HeLa cells were seeded at 1.2 x 10^5 cells/well in a 6-well plate. 2 mL of EMEM medium supplemented with 10% FBS was added to each well and the culture dish was incubated overnight to allow the cells to adhere. The next day, 1 µL of 160 µM and 1 µL of 2 µM compound were added to the corresponding wells, resulting in final compound concentrations of 80 nM and 1 nM, respectively, and a final DMSO concentration of 0.05%. The cells were returned to the incubator and incubated for another 4 hours.
(§5) After 4 hours, cells were harvested, the culture medium was aspirated, and the cells were rinsed once with 1 mL/well PBS. The PBS was aspirated, and 40 µL/well of RIPA lysis buffer containing protease inhibitors was added. After lysis and centrifugation, total protein extracts were obtained, and protein concentration in the extracts was determined by BCA assay. Protein electrophoresis was performed by SDS-PAGE, followed by constant voltage electrophoresis at 100 V for 60 minutes and the protein was then transferred to a PVDF membrane. The PVDF membrane was blocked in 5% skim milk powder for 1 hour at room temperature. Primary antibodies (SMARCA2: CST#11966S, SMARCA4: CST#49360S, GAPDH: CST#5174S) were added and incubated overnight at 4°C. After washing the membrane, secondary antibodies were added and incubated at room temperature for 1 hour (protected from the light). After washing, the membrane was exposed using an Odyssey luminometer. Grayscale analysis of bands was performed using Image Studio software.
as §2

SMARCA4 [3] = target: T1, SMARCA4; assay: SMARCA4 degradation in SW1573 cells (Western blot); design: endogenous in cells; host or cells: SW1573; details: 24 hours; for Dmax at 0.001 µM / Dmax at 0.08 µM: read-out: Degradation rate of SMARCA4 in SW1573 cells (%)
Procedure: SW1573 cells were seeded at 2x10^5Cells/well in a 6-well plate. 2 mL of EMEM medium supplemented with 10% FBS was added to each well and was incubated overnight to allow cell attachment. […] The cells were returned to the incubator and incubated for another 24 hours.
as §1, with “After 24” for “After 4”, “the” for “the culture”
as §2

SMARCA2 [4] = target: T2, SMARCA2; assay: SMARCA2 degradation in SW1573 cells (Western blot); design: endogenous in cells; host or cells: SW1573; details: 24 hours
Procedure: as §3
as §4, with “SW1573” for “HeLa”, “2x10^5Cells/well” for “1.2 x 10^5 cells/well”, “and” for “and the culture dish”, “cell attachment.” for “the cells to adhere.”, “wells for treatment,” for “wells,”, “24” for “4”
as §5, with “After 24” for “After 4”, “the” for “the culture”
as §2

T1 sequence (P51532 whole entry): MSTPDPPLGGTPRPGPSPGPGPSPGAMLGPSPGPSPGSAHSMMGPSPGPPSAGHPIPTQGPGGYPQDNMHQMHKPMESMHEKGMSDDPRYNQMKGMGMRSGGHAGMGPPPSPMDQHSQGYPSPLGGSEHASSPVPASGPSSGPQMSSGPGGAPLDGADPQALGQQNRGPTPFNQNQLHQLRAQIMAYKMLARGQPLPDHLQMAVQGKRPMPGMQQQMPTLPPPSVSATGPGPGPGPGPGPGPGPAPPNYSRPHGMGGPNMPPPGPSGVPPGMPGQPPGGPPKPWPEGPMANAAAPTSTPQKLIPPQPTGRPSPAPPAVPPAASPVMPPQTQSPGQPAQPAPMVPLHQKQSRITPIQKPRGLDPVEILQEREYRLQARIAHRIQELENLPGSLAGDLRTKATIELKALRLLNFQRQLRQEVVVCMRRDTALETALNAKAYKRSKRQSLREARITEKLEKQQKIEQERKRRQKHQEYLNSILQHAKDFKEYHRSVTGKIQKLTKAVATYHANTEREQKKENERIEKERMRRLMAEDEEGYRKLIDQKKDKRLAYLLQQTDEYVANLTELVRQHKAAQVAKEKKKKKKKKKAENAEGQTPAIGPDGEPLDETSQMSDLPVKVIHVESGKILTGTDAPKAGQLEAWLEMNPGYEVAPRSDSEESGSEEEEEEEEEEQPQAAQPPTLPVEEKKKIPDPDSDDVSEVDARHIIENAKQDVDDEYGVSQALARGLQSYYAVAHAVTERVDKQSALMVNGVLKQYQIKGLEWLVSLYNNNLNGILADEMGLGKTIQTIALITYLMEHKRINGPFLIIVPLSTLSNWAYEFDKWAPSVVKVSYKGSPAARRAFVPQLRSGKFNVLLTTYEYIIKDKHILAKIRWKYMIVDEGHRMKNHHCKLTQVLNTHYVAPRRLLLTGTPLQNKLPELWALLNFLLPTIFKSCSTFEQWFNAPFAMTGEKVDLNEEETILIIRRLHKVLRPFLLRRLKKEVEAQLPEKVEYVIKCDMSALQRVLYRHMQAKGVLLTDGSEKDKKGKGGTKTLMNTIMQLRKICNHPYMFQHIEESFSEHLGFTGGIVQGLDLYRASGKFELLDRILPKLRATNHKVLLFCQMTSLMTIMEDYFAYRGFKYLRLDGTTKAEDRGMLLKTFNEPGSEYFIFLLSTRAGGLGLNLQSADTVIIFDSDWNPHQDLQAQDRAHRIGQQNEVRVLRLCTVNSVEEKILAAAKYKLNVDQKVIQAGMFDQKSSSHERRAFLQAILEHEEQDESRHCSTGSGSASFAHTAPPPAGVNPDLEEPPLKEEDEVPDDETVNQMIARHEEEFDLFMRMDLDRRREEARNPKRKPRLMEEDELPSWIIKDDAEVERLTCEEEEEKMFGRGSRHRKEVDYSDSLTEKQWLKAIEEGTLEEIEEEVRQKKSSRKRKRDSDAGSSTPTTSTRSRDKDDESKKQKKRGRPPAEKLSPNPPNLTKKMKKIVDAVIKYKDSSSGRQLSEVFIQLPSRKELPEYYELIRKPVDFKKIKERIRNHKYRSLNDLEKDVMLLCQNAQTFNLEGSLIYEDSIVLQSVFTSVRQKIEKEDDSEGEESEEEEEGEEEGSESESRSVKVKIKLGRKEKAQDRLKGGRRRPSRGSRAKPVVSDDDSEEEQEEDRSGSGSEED

Row | SMILES | Dmax at 0.001 µM (SMARCA4 [1]; 1 nM) | Dmax at 0.08 µM (SMARCA4 [1]; 80 nM) | Degradation rate of SMARCA2 in HeLa cells (%) (SMARCA2 [2]; 1 nM) | Degradation rate of SMARCA2 in HeLa cells (%) (SMARCA2 [2]; 80 nM) | Dmax at 0.001 µM (SMARCA4 [3]; 1 nM) | Dmax at 0.08 µM (SMARCA4 [3]; 80 nM) | Degradation rate of SMARCA2 in SW1573 cells (%) (SMARCA2 [4]; 1 nM) | Degradation rate of SMARCA2 in SW1573 cells (%) (SMARCA2 [4]; 80 nM) | Degradation rate of SMARCA4 in HeLa cells (%) (SMARCA4 [1]; 1 nM) | Degradation rate of SMARCA4 in HeLa cells (%) (SMARCA4 [1]; 80 nM) | Degradation rate of SMARCA4 in SW1573 cells (%) (SMARCA4 [3]; 1 nM) | Degradation rate of SMARCA4 in SW1573 cells (%) (SMARCA4 [3]; 80 nM)
1 | Nc1nnc(-c2ccccc2O)cc1C#CC1CCC2(CC1)CC(N1CC3(CCc4cc(F)c(C(=O)N[C@H]5CCC(=O)NC5=O)cc4O3)C1)C2 (stereo partly shown) [SM-P-9] | -7% | 21% | 11% | 15% | -8% | -5% | 3% | 7% | – | – | – | –
2 | Nc1nnc(-c2ccccc2O)cc1C#CC1CCC2(CC1)CC(N1CCC3(CCc4cc(C(=O)N[C@H]5CCC(=O)NC5=O)c(F)cc4O3)CC1)C2 (stereo partly shown) [SM-P-7] | -52% | 28% | 7% | 68% | -29% | 39% | 1% | 66% | – | – | – | –
3 | Nc1nnc(-c2ccccc2O)cc1C#CC1CCC2(CC1)CC(N1CCN3c4ccc(C(=O)N[C@H]5CCC(=O)NC5=O)cc4OCC[C@H]3C1)C2 (stereo partly drawn) [SM-P-13, (S)-3-(7-((3-amino-6-(2-hydroxyphenyl)pyridazin-4-yl)ethynyl)spiro[3.5]nonan-2-yl)-N-((S)-2,6-dioxopyrimidin-3-yl)-2,3,4,4a,5,6-hexahydro-1H-benzo[b]pyrazino[1,2-d] [1,4]oxythiophene-9-carboxamide] | – | – | 38% | 96% | – | – | 32% | 88% | 19% | 65% | -11% | 32%
4 | Nc1nnc(-c2ccccc2O)cc1C#CC1CCC2(CC1)CC(N1CCC3(CC1)CCC1(CC3)COc3c1ccc1c3CN(C3CCC(=O)NC3=O)C1=O)C2 (stereo not shown) [SM-P-2] | 92% | 99% | 95% | 98% | 94% | 100% | 98% | 100% | – | – | – | –
5 | Nc1nnc(-c2ccccc2O)cc1C#CC1CCC2(CC1)CC(N1CCN3c4ccc(C(=O)N[C@H]5CCC(=O)NC5=O)cc4OC[C@@H]3C1)C2 (stereo partly shown) [SM-P-20] | – | – | 23% | 86% | – | – | 12% | 76% | 32% | 65% | -56% | 22%
6 | Cn1c(=O)n(C2CCC(=O)NC2=O)c2cc3c(cc21)OC1(CC3)CCN(C2CC3(CCC(C#Cc4cc(-c5ccccc5O)nnc4N)CC3)C2)CC1 (stereo not shown) [SM-P-1, 3-(1'-(7-((3-amino-6-(2-hydroxyphenyl)pyridazin-4-yl)ethynyl)spiro[3.5]nonan-2-yl)-3-methyl-2-oxo-2,3,7,8-tetrahydro-1H-spiro[chromeno[6,7-d]imidazole-6,4'-piperidin]-1-yl)piperidine-2,6-dione] | 85% | 98% | 90% | 100% | 43% | 97% | 72% | 96% | – | – | – | –
7 | Nc1nnc(-c2ccccc2O)cc1C#CC1CCC2(CC1)CC(N1CCC3(CC1)COc1c3ccc(F)c1C(=O)N[C@H]1CCC(=O)NC1=O)C2 (stereo partly shown) [SM-P-19] | – | – | 14% | 59% | – | – | 11% | 31% | -11% | 24% | 1% | 0%
8 | Nc1nnc(-c2ccccc2O)cc1C#CC1CCC2(CC1)CC(N1CCC3(CC1)Cc1ccc(NC4CCC(=O)NC4=O)cc1O3)C2 (stereo not shown) [SM-P-25, 3-((1'-(7-((3-amino-6-(2-hydroxyphenyl)pyridazin-4-yl)ethynyl)spiro[3.5]nonan-2-yl)-3H-spiro[benzofuran-2,4'-piperidin]-6-yl)amino)piperidine-2,6-dione] | 6% | 42% | 10% | 53% | -21% | -10% | 11% | 50% | – | – | – | –
